Where two headings read alike, the source gives them in different places.
Assays:
[1] = tested on: P. falciparum 3D7 parasites; test: P. falciparum growth inhibition assay, 1-cycle (72 h treatment), SYBR DNA staining (library screen at 2 μg/mL and dose-response); format: cell-based, Plasmodium falciparum; conditions: for activity at 2 µg/mL: Plasmodium falciparum
[2] = tested on: P. falciparum 3D7 parasites; test: P. falciparum growth inhibition assay, 2-cycle (120 h treatment), delayed-death screen and dose-response; format: cell-based, Plasmodium falciparum; conditions: for activity at 2 µg/mL: Plasmodium falciparum
[3] = tested on: T. gondii RH strain (RH-Tub-eYFP) tachyzoites; test: microbe, parasite or virus in culture; format: cell-based, Toxoplasma gondii; conditions: T. gondii, 72 h; for percent parasite growth at 2 µg/mL: Toxoplasma gondii
[4] = P. falciparum, 72 h, parasite screen 2 μg/mL, % growth, replicate 1
[5] = P. falciparum, 72 h, parasite screen 2 μg/mL, % growth, replicate 2
[6] = P. falciparum, 120 h, parasite screen 2 μg/mL, % growth, replicate 1
[7] = P. falciparum, 120 h, parasite screen 2 μg/mL, % growth, replicate 2
[8] = parasite screen 2 μg/mL, % growth, replicate 1
[9] = parasite screen 2 μg/mL, % growth, replicate 2
[10] = 3D7, P. falciparum, 72 h, screen at 2 μg/mL, replicate 1, read-out: Pf_72h_%Growth_Rep1
[11] = 3D7, P. falciparum, 72 h, screen at 2 μg/mL, replicate 2, read-out: Pf_72h_%Growth_Rep2
[12] = 3D7, P. falciparum, 120 h, screen at 2 μg/mL, replicate 1, read-out: Pf_120h_%Growth_Rep1
[13] = 3D7, P. falciparum, 120 h, screen at 2 μg/mL, replicate 2, read-out: Pf_120h_%Growth_Rep2
[14] = screen at 2 μg/mL, replicate 1, read-out: Tg_72h_%Growth_Rep1
[15] = screen at 2 μg/mL, replicate 2, read-out: Tg_72h_%Growth_Rep2
[16] = P. falciparum 3D7, 72 h, parasite screen at 2 μg/mL, % growth, replicate 1
[17] = P. falciparum 3D7, 72 h, parasite screen at 2 μg/mL, % growth, replicate 2
[18] = P. falciparum 3D7, 120 h, parasite screen at 2 μg/mL, % growth, replicate 1
[19] = P. falciparum 3D7, 120 h, parasite screen at 2 μg/mL, % growth, replicate 2
[20] = parasite screen at 2 μg/mL, % growth, replicate 1
[21] = parasite screen at 2 μg/mL, % growth, replicate 2
[22] = 2 μg/mL, values are growth (% of control)

COc1cc2c(c3oc4cccc(O)c4c(=O)c13)[C@@H]1C=CO[C@@H]1O2 [Sterigmatocystin]
Pf_72h_%Growth_Rep1 [1, 4]: 4.81%
Pf_72h_%Growth_Rep2 [1, 5]: 2.16%
Pf_120h_%Growth_Rep1 [2, 6]: 5.33%
Pf_120h_%Growth_Rep2 [2, 7]: 4.61%
Tg_72h_%Growth_Rep1 [3, 8]: 117.93%
Tg_72h_%Growth_Rep2 [3, 9]: 89.47%

C=C1CC[C@H](O)C(C)(C)[C@@H]1CC/C(C)=C/CC/C(C)=C/Cc1c(O)cc(C)oc1=O [Sartorypyrone D]
Pf_72h_%Growth_Rep1 [1, 4]: 81.94%
Pf_72h_%Growth_Rep2 [1, 5]: 66.06%
Pf_120h_%Growth_Rep1 [2, 6]: 72.77%
Pf_120h_%Growth_Rep2 [2, 7]: 7.76%
Tg_72h_%Growth_Rep1 [3, 8]: 121.13%
Tg_72h_%Growth_Rep2 [3, 9]: 88.47%

COC(=O)/C(=C1/OC(=O)C(c2ccccc2)=C1O)c1ccccc1 [Vulpinic acid]
activity at 2 µg/mL [1, 10]: 79.7%
activity at 2 µg/mL [1, 11]: 129%
activity at 2 µg/mL [2, 12]: 84.9%
activity at 2 µg/mL [2, 13]: 103%
percent parasite growth at 2 µg/mL [3, 14]: 109%
percent parasite growth at 2 µg/mL [3, 15]: 97.7%

CCCCCCCCCCC[C@@H](C[C@@H]1OC(=O)[C@H]1CCCCCC)OC(=O)[C@H](CC(C)C)NC=O [Tetrahydrolipstatin]
activity at 2 µg/mL [1, 10]: 74.2%
activity at 2 µg/mL [1, 11]: 88.8%
activity at 2 µg/mL [2, 12]: 171%
activity at 2 µg/mL [2, 13]: 93.3%
percent parasite growth at 2 µg/mL [3, 14]: 88.5%
percent parasite growth at 2 µg/mL [3, 15]: 98.4%

Cc1cccc(O)c1C(=O)O [BIA-M1655]
Pf_72h_%Growth_Rep1 [1, 16]: 90.28%
Pf_72h_%Growth_Rep2 [1, 17]: 64.98%
Pf_120h_%Growth_Rep1 [2, 18]: 96.92%
Pf_120h_%Growth_Rep2 [2, 19]: 97.37%
Tg_72h_%Growth_Rep1 [3, 20]: 91.77%
Tg_72h_%Growth_Rep2 [3, 21]: 83.98%

CCC(C)CCCCCCC(=O)N[C@H]1[C@H](Oc2c3cc4cc2Oc2ccc(cc2Cl)[C@@H](O[C@@H]2O[C@H](CO)[C@@H](O)[C@H](O)[C@H]2NC(C)=O)[C@@H]2NC(=O)[C@H](NC(=O)[C@@H]4NC(=O)[C@H]4NC(=O)[C@@H](Cc5ccc(c(Cl)c5)O3)NC(=O)[C@H](N)c3ccc(O)c(c3)Oc3cc(O)cc4c3)c3ccc(O)c(c3)-c3c(O[C@H]4O[C@H](CO)[C@@H](O)[C@H](O)[C@@H]4O)cc(O)cc3[C@@H](C(=O)O)NC2=O)O[C@H](CO)[C@@H](O)[C@@H]1O (stereo partly drawn) [Teicoplanin A2-4]
Pf_72h_%Growth_Rep1 ([1]; P. falciparum, 72 h, screen at 2 μg/mL, replicate 1): 81.32%
Pf_72h_%Growth_Rep2 ([1]; P. falciparum, 72 h, screen at 2 μg/mL, replicate 2): 78.26%
Pf_120h_%Growth_Rep1 ([2]; P. falciparum, 120 h, screen at 2 μg/mL, replicate 1): 64.36%
Pf_120h_%Growth_Rep2 ([2]; P. falciparum, 120 h, screen at 2 μg/mL, replicate 2): 53.42%
Tg_72h_%Growth_Rep1 ([3]; screen at 2 μg/mL, replicate 1): 112.03%
Tg_72h_%Growth_Rep2 ([3]; screen at 2 μg/mL, replicate 2): 79.02%

CO[C@@H]1[C@@H](O[C@@H]2O[C@H](C)[C@@H](O[C@H]3C[C@@](C)(O)[C@@H](O)[C@H](C)O3)[C@H](N(C)C)[C@H]2O)[C@@H](CC=O)C[C@@H](C)[C@@H](O[C@H]2CC[C@H](N(C)C)[C@@H](C)O2)/C=C/C=C/C[C@@H](C)OC(=O)C[C@H]1O [Spiramycin I, reference compound]
1) Growth (%) at 72 h ([1]; P. falciparum, 2 μg/mL, 72 h): 71.72%
Pf_72h_%Growth_Rep1 [1, 4]: 60.09%
Pf_72h_%Growth_Rep2 [1, 5]: 83.34%
2) Growth (%) at 120 h ([2]; P. falciparum, 2 μg/mL, 120 h): 11.98%
Pf_120h_%Growth_Rep1 [2, 6]: 15.80%
Pf_120h_%Growth_Rep2 [2, 7]: 8.16%
3) Fold change (72 h/120 h) ([2]; P. falciparum, growth at 72 h / growth at 120 h, 2 μg/mL): 6.0
Tg_72h_%Growth_Rep1 [3, 8]: 20.85%
Tg_72h_%Growth_Rep2 [3, 9]: 24.90%

COc1cc2c(oc(=O)c3cc(C)cc(OC)c32)c2c([C@@H]3O[C@H](C)[C@H](O)[C@@](C)(O)[C@H]3O)ccc(O)c12 [Chrysomycin B]
activity at 2 µg/mL ([1]; 3D7, 72 h, P. falciparum, 72 h, screen at 2 μg/mL, replicate 1, read-out: Pf_72h_%Growth_Rep1): 67.5%
activity at 2 µg/mL ([1]; 3D7, 72 h, P. falciparum, 72 h, screen at 2 μg/mL, replicate 2, read-out: Pf_72h_%Growth_Rep2): 64.1%
activity at 2 µg/mL ([2]; 3D7, 120 h, P. falciparum, 120 h, screen at 2 μg/mL, replicate 1, read-out: Pf_120h_%Growth_Rep1): 73%
activity at 2 µg/mL ([2]; 3D7, 120 h, P. falciparum, 120 h, screen at 2 μg/mL, replicate 2, read-out: Pf_120h_%Growth_Rep2): 73.7%
Mean ([3]; 2 μg/mL, mean of both replicates, growth (% of control)): 21.06
Replicate 1 [3, 22]: 25.01
Replicate 2 [3, 22]: 17.10
percent parasite growth at 2 µg/mL [3, 14]: 25%
percent parasite growth at 2 µg/mL [3, 15]: 17.1%

CCCC[C@H](O)[C@@H]1CC(OC)=CC(=O)O1 [BIA-P1067]
Pf_72h_%Growth_Rep1 [1, 16]: 81.23%
Pf_72h_%Growth_Rep2 [1, 17]: 52.23%
Pf_120h_%Growth_Rep1 [2, 18]: 77.65%
Pf_120h_%Growth_Rep2 [2, 19]: 111.54%
Tg_72h_%Growth_Rep1 [3, 20]: 91.14%
Tg_72h_%Growth_Rep2 [3, 21]: 92.83%
